For experiment [1], the system named is RET (RET/C634Y, RET/M918T, RET/C634W, RET/PTC1, RET/PTC3, KIF5B-RET, RET/C634R-V804M). Put plainly: RET auto-phosphorylation immunoblot, all cell lines and mutations tested. The format is cell-based. Here is the method:
FIG. 1: Photographs of blots showing inhibition of phosphorylation of RET/C634Y and RET/M918T in intact cells by Pz-1 or vehicle (NT: not treated). Serum-starved NIH3T3 cells expressing RET/C634Y or RET/M918T mutants were treated for 2 hr with indicated concentrations of Pz-1. 50 μg of total cell lysates were subjected to immunoblotting with anti-phospho-Y1062 (αp1062) or anti-phospho-Y905 (αp905) RET antibodies. The blots were normalized using anti-RET (αRET) antibodies.
FIG. 2: Photographs of blots showing inhibition of phosphorylation of gate-keeper RET point mutant and rearranged RET oncoproteins by Pz-1 or vehicle (NT: not treated). HEK293 cells were transiently transfected with vectors expressing RET/C634R-V804M mutant (V804 is the gate-keeper RET residue), or RET/PTC1 (CCDC6-RET, found in papillary thyroid carcinoma and lung adenocarcinoma), RET/PTC3 (NCOA4-RET, found in papillary thyroid carcinoma and lung adenocarcinoma), or KIF5B-RET (found in lung adenocarcinoma). After 36 hr from transfection, cells were serum-starved for 12 hr and then treated for 2 hr with indicated concentrations of Pz-1. 50 μg of total cell lysates were subjected to immunoblotting with anti-phospho-Y1062 (αp1062) and anti-phospho-Y905 (αp905) RET antibodies. The blots were normalized using anti-RET (αRET) antibody.
FIG. 3: Photographs of blots showing inhibition of RET protein endogenously expressed in TT cells (human MTC cell line expressing RET/C634W) by indicated concentrations of Pz-1 or vehicle (NT: not treated) and reduced effects in thyroid non-transformed Nthy-ori-3-1 cells. […]
The inhibition of RET auto-phosphorylation by Pz-1 was measured in several different cell lines including NIH3T3 fibroblasts expressing RET/C634Y or RET/M918T, TT expressing RET/C634W (MTC), Nthy-ory-3-1 (thyroid, non-transformed with RET; negative control), HEK293/RET/PTC1 (CCDC6-RET that can be found in PTC & lung cancer), HEK293/RET-KIF5B (that can be found in lung cancer), HEK293/RET/PTC3 (NCOA4-RET, that can be found in PTC & lung cancer), and HEK293 transfected with RET/C634R-V804M (FIGS. 1-3). […]
(In general: A western blot detects proteins with antibodies after separation by electrophoresis.)

Experiment [2] concerns the target T1, RET/C634Y (Homo sapiens, UniProt P07949, C634Y).
T1 construct: expressed in transfected cells; host or cells: NIH3T3 fibroblasts, grown as tumours in BALB/c nu/nu mice
The experiment in a line: In vivo target inhibition, RET phosphorylation and signaling in RET/C634Y-induced tumors. As to conditions: 48 hr, 1.0 or 3.0 mg/kg daily. Further details: species or system nude mice. The protocol:
FIG. 9: Photographs of blots showing effects of Pz-1 on cellular phosphorylation events in tumors induced in nude mice (from FIG. 8) by injection of NIH3T3 fibroblasts transformed by RET/C634Y or HRAS/G12V. […] Some of the vehicle-treated tumors, at the end of the tumor growth experiment described in FIG. 8, were treated for 48 hr with different doses of Pz-1 (TR) or left untreated (NT). At the end of the treatment, 50 μg of tumor protein lysates were subjected to immunoblotting with anti-phospho-Y1062 (αp1062) and anti-phospho-905 (αpY905) RET antibodies, anti-phospho-MAPK (αpMAPK, T302/Y304), anti-phospho-SHC (αpSHC, Y317), anti-phospho-p70S6K (αpp70S6K, T389), anti-phospho-S6RP (αpS6RP, S235/S236), and anti-phospho-VEGFR2 (αpVEGFR2 pY1175) antibodies. The blots were normalized using anti-RET (αRET), anti-SHC (αSHC), anti-MAPK (αMAPK), anti-p70S6K (αp70S6K), anti-S6RP (αS6RP) or anti-VEGFR2 (αVEGFR2) antibodies.
Some of the vehicle-treated tumors, at the end of the tumor growth experiment reported in FIG. 8, were treated for 48 hr with different doses of Pz-1 (1.0 or 3.0 mg/kg daily) or left untreated. […]

“Also recorded” adds a separate entry of the source.

T1 sequence (P07949 29-1072 isoform P07949-2 C634Y limits assumed): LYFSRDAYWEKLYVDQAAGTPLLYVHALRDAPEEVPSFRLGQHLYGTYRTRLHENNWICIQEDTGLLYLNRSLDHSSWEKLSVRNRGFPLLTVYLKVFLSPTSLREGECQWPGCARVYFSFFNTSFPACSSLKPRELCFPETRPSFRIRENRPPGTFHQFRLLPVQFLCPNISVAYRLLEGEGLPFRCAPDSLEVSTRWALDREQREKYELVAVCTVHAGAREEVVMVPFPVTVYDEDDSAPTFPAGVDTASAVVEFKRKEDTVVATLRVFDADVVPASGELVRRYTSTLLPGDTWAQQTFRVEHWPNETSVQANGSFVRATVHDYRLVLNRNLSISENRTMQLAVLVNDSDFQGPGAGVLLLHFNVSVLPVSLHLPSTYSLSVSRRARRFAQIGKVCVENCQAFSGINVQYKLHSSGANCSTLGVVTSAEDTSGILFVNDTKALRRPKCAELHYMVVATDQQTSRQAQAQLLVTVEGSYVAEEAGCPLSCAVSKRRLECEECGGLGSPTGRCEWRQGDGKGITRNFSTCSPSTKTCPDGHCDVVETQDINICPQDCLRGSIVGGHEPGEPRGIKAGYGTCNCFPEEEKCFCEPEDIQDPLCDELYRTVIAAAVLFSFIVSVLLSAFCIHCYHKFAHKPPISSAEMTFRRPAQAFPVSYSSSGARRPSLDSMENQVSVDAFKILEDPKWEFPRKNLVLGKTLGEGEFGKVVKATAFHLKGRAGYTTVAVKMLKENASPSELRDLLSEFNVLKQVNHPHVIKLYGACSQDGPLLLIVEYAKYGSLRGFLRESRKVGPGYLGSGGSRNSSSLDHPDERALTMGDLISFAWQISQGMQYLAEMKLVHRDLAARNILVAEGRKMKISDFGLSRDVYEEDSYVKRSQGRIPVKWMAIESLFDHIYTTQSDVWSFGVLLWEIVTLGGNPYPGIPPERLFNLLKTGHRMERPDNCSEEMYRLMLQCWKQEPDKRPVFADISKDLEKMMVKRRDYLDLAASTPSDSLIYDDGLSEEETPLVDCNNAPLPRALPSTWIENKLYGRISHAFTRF

`Cn1cc(-c2ccc3c(c2)ncn3-c2ccc(CC(=O)Nc3cc(C(C)(C)C)on3)cc2)cn1` [Pz-1, N-(5-(tert-butyl)isoxazol-3-yl)-2-(4-(5-(1-methyl-1H-pyrazol-4-yl)-1H-benzo[d]imidazol-1-yl)phenyl)acetamide]: in experiment [1] (1 nM, 2 hrs, all cell-lines), the “inhibition of pRET” value is “strong inhibition; also recorded: strongly inhibited”. The “concentration at which potent on RET and all tested RET mutants including RET/V804M” value in experiment [1] (FIGS. 1-3) is listed as “less than 1 nM”. The “inhibition of RET auto-phosphorylation” value in experiment [1] (nanomolar concentrations, all cell lines and mutations tested) is on record as 90%. The “RET phosphorylation and intracellular signaling (SHC, MAPK, p70S6K and S6RP) in tumors” value in experiment [2] is “inhibited”.

For the origin of these results see US9988371B2, “Benzimidazole analogues and related methods” (The Arizona Board of Regents, on Behalf of the University …, priority 2014, dated 2018).
